# Where “and” joins values, the source holds several entries; their conditions need not be identical. Identical values can stand only once. Like-named read-outs stand apart in the source and are kept apart here.
# Assays:
# [1] = molecular target: T1, hNaV1.6 channel (Homo sapiens, UniProt Q9UQD0); assay: Automated patch-clamp, Na+ currents in HEK293-hNaV1.6 cells; format: cell-based
# T1 construct: expressed in transfected cells
# Experimental: (§1) GH3b6 cells are a subclone of the GH3 pituitary cell line and were a generous gift from Dr. Françoise Macari (IGF, Montpellier, France). GH3b6 cells were cultivated from passage 14 until passage 32 at 37 °C/5% CO2 in Dubelcco’s Modified Eagle Medium (DMEM)/F12 (Lonza, Basel, Switzerland), supplemented with 10% FBS (Lonza, Basel, Switzerland), 1 mM L-glutamine, and 1 mM penicillin and streptomycin solution. For the fluorescence assay, the GH3b6 cells were seeded in black-walled, clear-bottom, 96-well, tissue culture-treated, and sterile imaging plates (Corning Hazebrouck, France), at a density of 10,000 cells per well, and incubated for 24 h before starting the experiment. The human Nav1.3 (hNav1.3) channel-expressing cell line (HEK293) used in this work was a generous gift from Massimo Mantegazza (IPMC, Nice, France). HEK293-hNaV1.3 cells were cultivated from passage 20 until passage 35 at 37 °C/5% CO2 in a DMEM high glucose medium (4.5 g/l), supplemented with 10% FBS, pyruvate, L-glutamine, and penicillin and streptomycin solution, each one at 1 mM, completed with 800 µg/mL geneticin G418. For the fluorescence assays, the cells were plated at a density of 50,000 cells per well in black-walled, clear-bottom, 96-well plates and then cultured at 37 °C and 5% CO2 for 24 h before the experiments. HEK293 stably expressing hNaV1.2 and hNaV1.6 were cultivated in the same conditions mentioned above for the HEK293-hNaV1.3 cells. For the automated patch-clamp experiments, cells were passaged from 24 to 48 h prior to the experiment and replated in the appropriate quantity to reach 50–70% confluence. For electrophysiological recordings, cells were detached with trypsin-EDTA and diluted in a culture medium. Then, the cells were centrifuged at 800 rpm for 4 min and resuspended (~300,000 cells/mL) in a patch-clamp extracellular solution.
# (§2) Whole-cell recordings were used to investigate the effects of oxostephanine, liriodenine, thalmiculine, bebeerine, and protopine on HEK293 cells stably expressing the hNav1.2, hNav1.3, and hNav1.6 channels. Automated patch-clamp recordings were performed using the SyncroPatch 384PE from Nanion (München, Germany). Chips with a single hole (n = 384, series resistance 3.93 ± 1.19 MΩ) were used for HEK293 cell recordings. Pulse generation and data collection were performed with the PatchControl384 v1.9.7 software (Nanion) and the Biomek interface (Beckman Coulter). Whole-cell recordings were conducted according to the recommended procedures of Nanion. The cells were stored in a cell hotel reservoir at 10 °C, with a shaking speed of 60 RPM. After initiating the experiment, cell catch, sealing, whole-cell formation, liquid application, recording, and data acquisition were all performed sequentially and automatically. The intracellular solution contained (in mM): 10 CsCl, 110 CsF, 10 NaCl, 10 EGTA, and 10 HEPES (pH 7.2, osmolarity 280 mOsm), and the extracellular solution contained (in mM): 60 NMDG, 80 NaCl, 4 KCl, 2 CaCl2, 1 MgCl2, 5 Glucose, and 10 HEPES (pH 7.4 (NaOH), osmolarity 280 ± 3 mOsm). Whole-cell experiments were performed at a holding potential of −100 mV at room temperature (18–22 °C). Currents were sampled at 20 kHz. For pharmacological assays, alkaloid solutions were prepared at 30 µM in the extracellular solution supplemented with 0.3% bovine serum albumin and distributed in 384-well compound plates according to a pre-established plate plan. This distribution within compound plates could not be randomized since it would then excessively complexify the methods of analyses. The working compound solution was diluted 3 times in the patch-clamp recording well by adding from 30 to 60 µL of the external solution to reach the final reported concentration and the test volume of 90 µL. The effects of IA (10 µM) or of BTX (1 µM) were measured at the end of a 10 min application time. Activation curves were built by depolarizations lasting for 2000 ms, from −130 mV to 40 mV, using 5 mV increment steps. […]
# [2] = molecular target: human NaV1.3 channel (Homo sapiens, UniProt Q9NY46); assay: ANG-2 intracellular Na+ fluorescent assay in HEK293-hNaV1.3 cells; format: cell-based; conditions: IA at 10 µM; BTX 3 µM; HEK293-hNaV1.3; read-out: Inhibition of BTX-induced [Na+]i elevation (ANG-2 signal)
# Chain of human NaV1.3 channel (Q9NY46 whole entry): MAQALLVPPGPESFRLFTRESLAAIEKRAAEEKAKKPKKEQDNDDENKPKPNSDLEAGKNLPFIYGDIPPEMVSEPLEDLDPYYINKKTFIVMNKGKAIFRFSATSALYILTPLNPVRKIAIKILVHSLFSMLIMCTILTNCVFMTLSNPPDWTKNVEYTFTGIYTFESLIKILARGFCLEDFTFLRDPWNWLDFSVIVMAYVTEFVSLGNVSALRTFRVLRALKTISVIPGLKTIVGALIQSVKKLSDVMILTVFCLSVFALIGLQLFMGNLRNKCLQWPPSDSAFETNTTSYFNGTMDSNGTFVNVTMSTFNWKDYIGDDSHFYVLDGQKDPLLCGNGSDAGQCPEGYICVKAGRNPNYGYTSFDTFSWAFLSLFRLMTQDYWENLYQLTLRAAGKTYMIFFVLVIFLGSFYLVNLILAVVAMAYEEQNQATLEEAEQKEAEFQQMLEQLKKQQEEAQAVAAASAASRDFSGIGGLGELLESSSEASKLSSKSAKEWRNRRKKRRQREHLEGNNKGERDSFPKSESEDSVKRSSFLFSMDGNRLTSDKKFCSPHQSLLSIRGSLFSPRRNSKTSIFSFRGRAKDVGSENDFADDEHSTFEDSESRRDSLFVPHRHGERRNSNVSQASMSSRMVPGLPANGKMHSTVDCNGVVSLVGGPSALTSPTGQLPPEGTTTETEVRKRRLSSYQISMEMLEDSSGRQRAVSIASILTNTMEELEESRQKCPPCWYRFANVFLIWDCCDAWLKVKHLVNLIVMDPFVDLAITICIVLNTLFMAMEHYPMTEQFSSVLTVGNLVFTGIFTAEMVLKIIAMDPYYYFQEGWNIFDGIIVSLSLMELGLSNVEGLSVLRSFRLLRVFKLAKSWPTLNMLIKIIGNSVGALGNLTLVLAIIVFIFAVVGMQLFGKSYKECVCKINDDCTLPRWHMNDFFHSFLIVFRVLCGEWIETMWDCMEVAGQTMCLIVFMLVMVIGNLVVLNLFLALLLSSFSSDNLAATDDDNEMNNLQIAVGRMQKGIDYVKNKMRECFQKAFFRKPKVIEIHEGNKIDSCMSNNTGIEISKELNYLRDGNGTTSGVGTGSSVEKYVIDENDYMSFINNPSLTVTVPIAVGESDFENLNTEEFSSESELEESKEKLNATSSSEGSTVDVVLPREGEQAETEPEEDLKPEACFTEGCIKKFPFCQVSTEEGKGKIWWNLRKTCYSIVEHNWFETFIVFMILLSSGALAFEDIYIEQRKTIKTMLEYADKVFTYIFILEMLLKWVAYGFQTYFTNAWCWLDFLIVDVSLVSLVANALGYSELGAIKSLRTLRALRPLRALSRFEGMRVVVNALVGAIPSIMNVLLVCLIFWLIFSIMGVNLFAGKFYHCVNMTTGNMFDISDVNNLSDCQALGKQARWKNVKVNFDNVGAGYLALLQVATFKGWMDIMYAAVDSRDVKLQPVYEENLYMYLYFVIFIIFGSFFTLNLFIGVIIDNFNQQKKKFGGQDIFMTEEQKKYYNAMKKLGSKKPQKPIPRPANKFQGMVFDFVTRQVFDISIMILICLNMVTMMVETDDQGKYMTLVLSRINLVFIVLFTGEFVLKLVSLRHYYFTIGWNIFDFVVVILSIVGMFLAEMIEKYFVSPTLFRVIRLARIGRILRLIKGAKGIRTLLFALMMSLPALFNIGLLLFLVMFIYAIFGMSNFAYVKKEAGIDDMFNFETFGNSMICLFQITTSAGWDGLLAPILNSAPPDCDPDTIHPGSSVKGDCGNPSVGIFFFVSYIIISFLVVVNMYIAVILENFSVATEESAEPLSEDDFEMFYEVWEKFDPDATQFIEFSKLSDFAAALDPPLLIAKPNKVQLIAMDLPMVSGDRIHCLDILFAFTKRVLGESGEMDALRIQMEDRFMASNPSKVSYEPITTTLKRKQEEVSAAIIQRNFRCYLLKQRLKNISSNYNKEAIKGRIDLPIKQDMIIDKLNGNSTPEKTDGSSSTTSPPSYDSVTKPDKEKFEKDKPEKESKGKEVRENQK
# [3] = molecular target: T2, hNaV1.2 channel (Homo sapiens, UniProt Q99250); assay: Automated patch-clamp, Na+ currents in HEK293-hNaV1.2 cells; format: cell-based
# T2 construct: expressed in transfected cells
# T2 sequence (Q99250 whole entry): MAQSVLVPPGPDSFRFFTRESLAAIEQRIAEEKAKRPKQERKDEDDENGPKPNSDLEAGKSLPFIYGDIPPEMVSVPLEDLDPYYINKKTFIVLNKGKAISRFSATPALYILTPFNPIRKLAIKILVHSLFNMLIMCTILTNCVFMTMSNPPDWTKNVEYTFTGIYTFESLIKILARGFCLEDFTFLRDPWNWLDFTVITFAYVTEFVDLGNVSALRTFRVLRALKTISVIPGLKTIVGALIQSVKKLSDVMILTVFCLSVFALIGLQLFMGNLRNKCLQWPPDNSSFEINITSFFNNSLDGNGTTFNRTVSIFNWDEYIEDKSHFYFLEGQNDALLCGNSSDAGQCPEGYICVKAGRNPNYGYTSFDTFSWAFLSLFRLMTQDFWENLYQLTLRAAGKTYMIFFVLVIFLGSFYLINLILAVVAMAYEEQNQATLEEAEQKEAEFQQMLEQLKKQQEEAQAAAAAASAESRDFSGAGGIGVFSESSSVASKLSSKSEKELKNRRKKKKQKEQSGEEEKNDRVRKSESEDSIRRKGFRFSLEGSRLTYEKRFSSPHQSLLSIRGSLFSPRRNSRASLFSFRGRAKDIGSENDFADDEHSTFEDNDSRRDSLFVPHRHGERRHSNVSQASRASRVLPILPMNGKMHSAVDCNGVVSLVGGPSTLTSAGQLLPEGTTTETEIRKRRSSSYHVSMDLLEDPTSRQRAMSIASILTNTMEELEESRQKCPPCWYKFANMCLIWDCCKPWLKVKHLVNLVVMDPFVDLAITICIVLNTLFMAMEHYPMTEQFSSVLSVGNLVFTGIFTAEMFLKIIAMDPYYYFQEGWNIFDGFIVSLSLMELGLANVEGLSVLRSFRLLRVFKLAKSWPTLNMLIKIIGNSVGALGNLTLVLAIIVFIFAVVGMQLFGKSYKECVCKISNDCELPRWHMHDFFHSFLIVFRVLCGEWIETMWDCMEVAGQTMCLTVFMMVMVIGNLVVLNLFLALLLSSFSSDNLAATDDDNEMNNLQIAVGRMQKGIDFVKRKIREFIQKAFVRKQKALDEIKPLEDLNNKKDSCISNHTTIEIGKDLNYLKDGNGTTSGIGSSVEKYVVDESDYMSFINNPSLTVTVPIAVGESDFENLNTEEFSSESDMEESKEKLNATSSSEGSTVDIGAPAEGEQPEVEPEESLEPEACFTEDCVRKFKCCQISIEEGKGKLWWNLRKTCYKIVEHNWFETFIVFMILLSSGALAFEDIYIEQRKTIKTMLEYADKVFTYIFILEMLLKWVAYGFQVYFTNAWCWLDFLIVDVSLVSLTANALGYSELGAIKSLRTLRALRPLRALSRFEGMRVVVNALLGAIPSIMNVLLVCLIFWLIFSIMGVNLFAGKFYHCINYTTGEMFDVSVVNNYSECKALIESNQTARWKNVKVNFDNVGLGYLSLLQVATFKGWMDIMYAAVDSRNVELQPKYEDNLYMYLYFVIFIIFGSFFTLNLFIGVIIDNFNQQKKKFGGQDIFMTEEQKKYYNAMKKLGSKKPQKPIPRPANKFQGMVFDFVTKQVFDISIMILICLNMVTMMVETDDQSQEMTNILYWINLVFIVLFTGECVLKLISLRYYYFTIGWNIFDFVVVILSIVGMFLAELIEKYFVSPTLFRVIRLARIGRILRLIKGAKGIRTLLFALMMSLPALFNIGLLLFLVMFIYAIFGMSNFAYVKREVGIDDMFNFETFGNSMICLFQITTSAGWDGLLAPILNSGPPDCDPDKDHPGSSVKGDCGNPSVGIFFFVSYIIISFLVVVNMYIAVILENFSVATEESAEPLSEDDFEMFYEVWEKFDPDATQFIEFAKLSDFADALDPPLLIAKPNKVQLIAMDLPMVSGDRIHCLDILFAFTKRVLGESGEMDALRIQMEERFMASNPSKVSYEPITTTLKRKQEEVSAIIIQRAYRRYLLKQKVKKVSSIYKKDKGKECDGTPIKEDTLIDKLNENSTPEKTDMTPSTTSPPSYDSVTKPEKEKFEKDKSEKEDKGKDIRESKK
# Experimental: as §1, §2
# [4] = molecular target: T3, hNaV1.3 channel (Homo sapiens, UniProt Q9NY46); assay: Automated patch-clamp, Na+ currents in HEK293-hNaV1.3 cells; format: cell-based
# T3 construct: expressed in transfected cells
# T3 sequence (Q9NY46 whole entry): as the sequence (Q9NY46 whole entry) above
# Experimental: as §1, §2
# [5] = tested on: NaV channels endogenously expressed in GH3b6 cells; assay: FRET voltage sensor probe (VSP) assay of BTX-induced depolarization in GH3b6 cells; format: cell-based, rat; conditions: GH3b6 cells; for Maximum of Inhibition of BTX-evoked VSP signal / IC50: BTX 1 µM, n = 6; for Maximum of Inhibition of BTX-evoked VSP signal: % printed only; for IC50: read-out: IC50 (µM), inhibition of BTX-evoked VSP signal; for Inhibitory Effects (%) on BTX-induced VSP signal (screening): IA at 10–50 µg/mL co-incubated with 1 µM BTX
# [6] = 10 µM, Vm between −20 mV and 30 mV
smiles,measurement,setting,value
"COc1cc2c3cc1Oc1cc(ccc1O)CC1c4c(cc(OC)c(O)c4Oc4ccc(cc4)CC3N(C)CC2)CCN1C (centres unmarked) [IA52, bebeerine]",inhibition at 10 µM,[1]; [6],70 to 74%
same,inhibition at 10 µM,"[1]; 10 µM, at −20 mV",74 ± 3%
same,IC50,"[1]; estimated from inhibition at 10 µM, read-out: IC50 on Na+ currents elicited by hNaV1.6",< 10 µM and > 10 µM
same,Change in V1/2 of activation and inactivation vs control,"[1]; hNaV1.6, 10 µM",no significant change
same,Activation Slope (±SEM),"[1]; hNaV1.6, 10 µM bebeerine",7.0 ± 0.3 ^3
same,"Activation V1/2 (±SEM, mV)","[1]; hNaV1.6, 10 µM bebeerine",−22.1 ± 0.7 (n = 32) mV
same,Inactivation Slope (±SEM),"[1]; hNaV1.6, 10 µM bebeerine",−9.0 ± 0.3 ^6
same,"Inactivation V1/2 (±SEM, mV)","[1]; hNaV1.6, 10 µM bebeerine",−60.2 ± 0.7 (n = 24) mV
same,inhibition at 10 µM,[2],18 ± 2%
same,inhibition at 10 µM,[3]; [6],42 to 50%
same,IC50,"[3]; estimated from inhibition at 10 µM, read-out: IC50 on Na+ currents elicited by hNaV1.2",< 10 µM and > 10 µM
same,Change in V1/2 of activation and inactivation vs control,"[3]; hNaV1.2, 10 µM",no significant change
same,Activation Slope (±SEM),"[3]; hNaV1.2, 10 µM bebeerine",5.8 ± 0.3 ^1
same,"Activation V1/2 (±SEM, mV)","[3]; hNaV1.2, 10 µM bebeerine",−29.1 ± 1.1 (n = 36) mV
same,Inactivation Slope (±SEM),"[3]; hNaV1.2, 10 µM bebeerine",−8.5 ± 0.3 ^4
same,"Inactivation V1/2 (±SEM, mV)","[3]; hNaV1.2, 10 µM bebeerine",−62.3 ± 1.1 (n = 21) mV
same,inhibition at 10 µM,[4]; [6],60 to 64%
same,inhibition at 10 µM,"[4]; 10 µM, at −15 mV",64 ± 4%
same,Shift in V1/2 activation vs control,"[4]; hNaV1.3, 10 µM",−3.6 ± 1.0
same,Activation Slope (±SEM),"[4]; hNaV1.3, 10 µM bebeerine",6.4 ± 0.3 ^2
same,"Activation V1/2 (±SEM, mV)","[4]; hNaV1.3, 10 µM bebeerine",−26.9 ± 0.7 (n = 51) mV
same,Inactivation Slope (±SEM),"[4]; hNaV1.3, 10 µM bebeerine",−8.9 ± 0.3 ^5
same,"Inactivation V1/2 (±SEM, mV)","[4]; hNaV1.3, 10 µM bebeerine",−60.2 ± 0.9 (n = 26) mV
same,Maximum of Inhibition of BTX-evoked VSP signal,[5],41.04 ± 3.44%
same,IC50,[5],0.74 ± 0.11 µM
same,Inhibitory Effects (%) on BTX-induced VSP signal (screening),[5],81.9%
"COc1ccc2c(c1OC)C(O)C1c3c(cc4c(c3-2)OCO4)CCN1C (centres unmarked) [IA36, sukhodianine]",Inhibitory Effects (%) on BTX-induced VSP signal (screening),[5],92.2%
"Cc1c[nH]c(C)c1C(=O)OC(C)C1=CCC23OCCN(C)CC12CC(O)C12OC4(O)CCC1(C)C(CC=C32)C4 (centres unmarked) [BTX, batrachotoxin, reference compound]",Increase of the AUC of current traces (inactivation rate of hNaV1.3),"[4]; BTX 1 µM, data not shown",55 fold
same,EC50 of BTX-induced VSP signal ratio,"[5]; BTX 0.01 to 3 µM, Na+ raised to 80 mM",0.27 ± 0.06 µM
"COc1ccc2cc1Oc1ccc(cc1)C[C@H]1c3cc(c(OC)cc3CCN1C)Oc1c(OC)c(OC)cc3c1[C@H](C2)N(C)CC3 [IA50, tetrandine]",Inhibitory Effects (%) on BTX-induced VSP signal (screening),[5],78.3%
"COc1cccc2c1C(=O)c1nccc3cc4c(c-2c13)OCO4 [IA14, oxostephanine]",Effect on Na+ currents elicited by hNaV1.6,"[1]; 10 µM, HEK293-hNaV1.6",no effects
same,Change in V1/2 of activation and inactivation vs control,"[1]; hNaV1.6, 10 µM",ns
same,inhibition at 10 µM,[2],43 ± 12%
same,Effect on Na+ currents elicited by hNaV1.2,"[3]; 10 µM, HEK293-hNaV1.2",no effects
same,Change in V1/2 of activation and inactivation vs control,"[3]; hNaV1.2, 10 µM",ns
same,Effect on current densities of hNaV1.3 at −60 mV,[4]; 10 µM IA in the presence of 1 µM BTX,significantly decreased
same,Effect on slow-down of inactivation induced by BTX (AUC),"[4]; 10 µM IA, BTX 1 µM, hNaV1.3",significantly decreased
same,Effect on Na+ currents elicited by hNaV1.3,"[4]; 10 µM, HEK293-hNaV1.3, without BTX",no effects
same,Change in V1/2 of activation and inactivation vs control,"[4]; hNaV1.3, 10 µM",ns
same,Maximum of Inhibition of BTX-evoked VSP signal,[5],95.78 ± 6.99%
same,IC50,[5]; listed as Oxostephanine,5 to 6 µM
same,IC50,[5],6.11 ± 0.09 µM
same,Inhibitory Effects (%) on BTX-induced VSP signal (screening),[5],84.4%
same,Inhibitory Effects (%) on BTX-induced VSP signal (screening),[5]; listed as IA24,80.5%

# From publication PMC9268414, “Screening an In-House Isoquinoline Alkaloids Library for New Blockers of Voltage-Gated Na^+ Channels Using Voltage Sensor Fluorescent Probes: Hits and Biases” (Molecules, 2022)
